Results published in patent US12215100B2, “Anticancer compounds” (Pharma Mar, S.A., priority 2018, dated 2025).

Tests used:
Format in all cases: cell-based, human
[1] = system: MDA-MB-231; assay: SRB colorimetric cytotoxicity assay, MDA-MB-231; conditions: Homo sapiens, breast adenocarcinoma
Description: (§1) The aim of this assay is to evaluate the in vitro cytostatic (ability to delay or arrest tumor cell growth) or cytotoxic (ability to kill tumor cells) activity of the samples being tested.
(§2) A colorimetric assay, using sulforhodamine B (SRB) reaction has been adapted to provide a quantitative measurement of cell growth and viability (following the technique described by V. Vichai and K. Kirtikara (2006) Nature Protoc. 1, 1112-1116.)
(§3) This form of assay employs 96-well cell culture microplates. All the cell lines used in this study were obtained from the American Type Culture Collection (ATCC), unless otherwise indicated, and derive from different types of human cancer.
(§4) Cells were maintained in Dulbecco's Modified Eagle Medium (DMEM) (for A549, HT-29 and MDA-MB-231) or RPMI (for PSN-1) supplemented with 10% Fetal Bovine Serum (FBS), 2 mM L-glutamine, 100 U/mL penicillin and 100 U/mL streptomycin at 37° C., 5% CO2 and 98% humidity. For the experiments, cells were harvested from subconfluent cultures using trypsinization and resuspended in fresh medium before counting and plating.
(§5) Cells were seeded in 96 well microtiter plates, at 5×10^3 cells per well in aliquots of 150 μL, and allowed to attach to the plate surface for 18 hours (overnight) in drug free medium. After that, one control (untreated) plate of each cell line was fixed (as described below) and used for time zero reference value. […] After 72 hours treatment, the antitumor effect was measured by using the SRB methodology: Briefly, cells were washed twice with PBS, fixed for 15 min in 1% glutaraldehyde solution at room temperature, rinsed twice in PBS, and stained in 0.4% SRB solution for 30 min at room temperature. Cells were then rinsed several times with 1% acetic acid solution and air-dried at room temperature. SRB was then extracted in 10 mM trizma base solution and the absorbance measured in an automated spectrophotometric plate reader at 490 nm. Effects on cell growth and survival were estimated by applying the NCI algorithm (Boyd M R and Pauli K D. Drug Dev Res. 1995, 34, 91-104).
(§6) Using the mean±SD of triplicates, a dose-response curve was automatically generated using nonlinear regression analysis to a 4-parameter logistic curve. Three reference parameters were calculated (NCI algorithm) by automatic interpolation: GI50=compound concentration that produces 50% cell growth inhibition, as compared to control cultures; TGI=total cell growth inhibition (cytostatic effect), as compared to control cultures, and LC50=compound concentration that produces 50% net cell killing (cytotoxic effect).

[2] = system: PSN-1; assay: SRB colorimetric cytotoxicity assay, PSN-1; conditions: Homo sapiens, pancreatic adenocarcinoma
Description: as §1, §2, §3, §4, §5, §6

[3] = system: HT29; assay: SRB colorimetric cytotoxicity assay, HT29; conditions: Homo sapiens, colorectal adenocarcinoma
Description: as §1, §2, §3, §4, §5, §6

[4] = system: A549; assay: SRB colorimetric cytotoxicity assay, A549; conditions: Homo sapiens, lung carcinoma (NSCLC)
Description: as §1, §2, §3, §4, §5, §6

[5] = MDA-MB-231, 72 h, 72 hours treatment
[6] = HT-29, 72 h, 72 hours treatment

| Structure (SMILES) | GI50 ([1]; MDA-MB-231, 72 hours treatment) [nM] | GI50 ([2]; PSN1, 72 hours treatment) [nM] | GI50 ([3]; HT-29, 72 hours treatment) [nM] | GI50 ([4]; A549, 72 hours treatment) [nM] | GI50 [1, 5] [nM] | GI50 ([2]; PSN1, 72 h, 72 hours treatment) [nM] | GI50 [3, 6] [nM] | GI50 ([4]; A549, 72 h, 72 hours treatment) [nM] |
| --- | --- | --- | --- | --- | --- | --- | --- | --- |
| CCC[C@@H](NC(=O)[C@]1(C)CSC(/C(C)=N/OCCCCO[Si](C)(C)C(C)(C)C)=N1)c1cc(OC)cc(=O)o1 [Compound 146] | 2820 | 2110 | 1020 | 1940 | – | – | – | – |
| CCC[C@@H](NC(=O)[C@]1(C)CSC(/C(C)=N/OCCCCO)=N1)c1cc(OC)cc(=O)o1 [Compound 147] | – | – | – | – | 287 | 243 | 137 | 148 |
| CCC[C@@H](NC(=O)[C@]1(C)CSC(/C(C)=N/OCCCCO[Si](C)(C)C(C)(C)C)=N1)c1cc(OCC2CC2)cc(=O)o1 [Compound 148] | 247 | 296 | 59.2 | 263 | – | – | – | – |
| CCC[C@@H](NC(=O)[C@]1(C)CSC(/C(C)=N/OCCCCO)=N1)c1cc(OCC2CC2)cc(=O)o1 [Compound 149] | – | – | – | – | 8.91 | 13.6 | 6.28 | 6.69 |
| CCC[C@@H](NC(=O)[C@]1(C)CSC(/C(C)=N/OCCCS)=N1)c1cc(OC)cc(=O)o1 [Compound 151] | – | – | – | – | 1340 | 1210 | 505 | 856 |
| C=CCOc1cc([C@@H](CCC)NC(=O)[C@]2(C)CSC(/C(C)=N/OCCCNC(=O)OC(C)(C)C)=N2)oc(=O)c1 [Compound 152] | – | – | – | – | 26.6 | 21.3 | 19.5 | 19.5 |
| C#CCOc1cc([C@@H](CCC)NC(=O)[C@]2(C)CSC(/C(C)=N/OCCCNC(=O)OC(C)(C)C)=N2)oc(=O)c1 [Compound 155] | – | – | – | – | 74.8 | 73 | 40.9 | 37.4 |
| CCC[C@@H](NC(=O)[C@]1(C)CSC(/C(C)=N/OCCCNC(=O)OC(C)(C)C)=N1)c1cc(OCC2CC2)cc(=O)o1 [Compound 157] | – | – | – | – | 5.37 | 5.54 | 5.02 | 5.37 |
| CCC[C@@H](NC(=O)[C@]1(C)CSC(/C(C)=N/OCCC2COC(C)(C)O2)=N1)c1cc(OCC2CC2)cc(=O)o1 (stereo partly drawn) [Compound 159] | – | – | – | – | 67.3 | 50.9 | 63.7 | 49.1 |
| C=CCOc1cc([C@@H](CCC)NC(=O)[C@]2(C)CSC(C(C)=NOCCCCN3CCOCC3)=N2)oc(=O)c1 [Compound 161] | – | – | – | – | 6.49 | 5.13 | 5.47 | 4.96 |
| C=CCOc1cc([C@@H](CCC)NC(=O)[C@]2(C)CSC(C(C)=NOCCCN3CCN(C)CC3)=N2)oc(=O)c1 [Compound 163] | – | – | – | – | 16.6 | 16.4 | 15.6 | 16.1 |
| C=CCOc1cc([C@@H](CCC)NC(=O)[C@]2(C)CSC(/C(C)=N/OC(=O)COCCOCCOC)=N2)oc(=O)c1 [Compound 164] | – | – | – | – | 7.22 | 6.52 | 4.58 | 6.52 |
| C=CCOc1cc([C@@H](CCC)NC(=O)[C@]2(C)CSC(/C(C)=N/OC(=O)CCCCCNC(=O)OC(C)(C)C)=N2)oc(=O)c1 [Compound 165] | – | – | – | – | 7.41 | 6.44 | 5.32 | 5.48 |
| CCC[C@@H](NC(=O)[C@]1(C)CSC(/C(C)=N/OC(=O)CCCCCNC(=O)OC(C)(C)C)=N1)c1cc(OCC2CC2)cc(=O)o1 [Compound 166] | – | – | – | – | 7.09 | 6.3 | 4.57 | 4.73 |
| C=CCOc1cc([C@@H](CCC)NC(=O)[C@]2(C)CSC(/C(C)=N/OC(=O)[C@H]3O[C@@H]4OC(C)(C)O[C@@H]4[C@H]4OC(C)(C)O[C@H]43)=N2)oc(=O)c1 [Compound 170] | – | – | – | – | 5.57 | 2.71 | 2.41 | 3.01 |
